# Measured values as given in patent publication US8604042B2, “Bi-aryl meta-pyrimidine inhibitors of kinases” (TargeGen, Inc., priority 2005, dated 2013).
# Structures can show the parent of a compound that is named as a salt.
# Biological target: T1, recombinant JAK2 (Homo sapiens, UniProt O60674)
# T1 construct: purchased Upstate Cell Signaling Solutions
# Experiment: IC50 value determinations for Jak2 kinase, luminescence-based kinase assay (Kinase-Glo)
# Type: biochemical
# T1 sequence (O60674 808-1132 limits assumed): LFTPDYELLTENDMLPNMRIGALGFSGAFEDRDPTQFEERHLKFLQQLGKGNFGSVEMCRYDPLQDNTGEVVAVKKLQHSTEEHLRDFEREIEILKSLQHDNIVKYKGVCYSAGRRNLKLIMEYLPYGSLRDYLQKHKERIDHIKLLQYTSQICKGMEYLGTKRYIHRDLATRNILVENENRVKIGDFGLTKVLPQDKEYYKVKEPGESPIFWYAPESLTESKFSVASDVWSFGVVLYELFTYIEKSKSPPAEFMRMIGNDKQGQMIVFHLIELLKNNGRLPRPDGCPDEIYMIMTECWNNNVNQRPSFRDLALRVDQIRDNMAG
IC50 (Table 1),Compound,other results
11.8 nM,Cc1cnc(Nc2ccc(N3CCN(C)CC3)cc2)nc1Nc1cccc(S(=O)(=O)NC(C)C)c1 [N-Isopropyl-3-{5-methyl-2-[4-(4-methyl-piperazin-1-yl)-phenylamino]-pyrimidin-4-ylamino}-benzenesulfonamide],
18.8 nM,"Cc1cnc(Nc2ccc(N3CCN(C)CC3)cc2)nc1Nc1cccc(S(=O)(=O)N2C(C)CCC2C)c1 (stereo not drawn) [N4-[3-(2,5-Dimethyl-pyrrolidine-1-sulfonyl)-phenyl]-5-methyl-N2-[4-(4-methyl-piperazin-1-yl)-phenyl]-pyrimidine-2,4-diamine Hydrochloride]",
20.3 nM,Cc1cnc(Nc2ccc(OCCO)cc2)nc1Nc1cccc(S(=O)(=O)NC(C)(C)C)c1 [N-tert-Butyl-3-{2-[4-(2-hydroxy-ethoxy)-phenylamino]-5-methyl-pyrimidin-4-ylamino)-benzenesulfonamide],
61.1 nM,"Cc1cnc(Nc2ccc(OCCN3CCCC3)cc2)nc1Nc1cccc([N+](=O)[O-])c1 [N2-(4-(2-(pyrrolidin-1-yl)ethoxy)phenyl)-5-methyl-N4-(3-nitrophenyl)pyrimidine-2,4-diamine Hydrochloride]",
6.98 nM,"Cc1cnc(Nc2ccc(OCCN3CCCC3)cc2)nc1Nc1ccc(C)c2[nH]ccc12 [N2-(4-(2-(pyrrolidin-1-yl)ethoxy)phenyl)-5-methyl-N4-(7-methyl-1H-indol-4-yl)pyrimidine-2,4-diamine Hydrochloride]",
694 nM,"Cc1cnc(Nc2ccc(CN3CCNCC3)cc2)nc1Nc1ccc(Cl)c2[nH]ccc12 [N4-(7-chloro-1H-indol-4-yl)-5-methyl-N2-(4-((piperazin-1-yl)methyl)phenyl)pyrimidine-2,4-diamine Hydrochloride]",
20.8 nM,"Cc1cnc(Nc2ccc(OCCN3CCCC3)cc2)nc1Nc1cccc(Cl)c1 [N4-(3-Chloro-phenyl)-5-methyl-N2-[4-(2-pyrrolidin-1-yl-ethoxy)-phenyl]-pyrimidine-2,4-diamine]",
32.9 nM,Cc1cnc(Nc2ccc(C(=O)N3CCOCC3)cc2)nc1Nc1cccc(S(=O)(=O)NC(C)(C)C)c1 [N-tert-Butyl-3-{5-methyl-2-[4-(morpholine-4-carbonyl)-phenylamino]-pyrimidin-4-ylamino}-benzenesulfonamide],
11.4 nM,"Cc1cnc(Nc2ccc(OC3CCNCC3)cc2)nc1Nc1ccc(Cl)c(C(F)(F)F)c1 [N4-(4-Chloro-3-trifluoromethyl-phenyl)-5-methyl-N2-[4-(piperidin-4-yloxy)-phenyl]-pyrimidine-2,4-diamine]",
702 nM,c1ccc(Cc2ccnc(Nc3ccc(OCCN4CCCC4)cc3)n2)cc1 [N-(4-(2-(pyrrolidin-1-yl)ethoxy)phenyl)-4-benzylpyrimidin-2-amine],
23 nM,Cc1cnc(Nc2ccc(N3CCN(C)CC3)cc2)nc1Nc1cccc(C(N)=O)c1 [3-{5-Methyl-2-[4-(4-methyl-piperazin-1-yl)-phenylamino]-pyrimidin-4-ylamino}-benzamide],
,COc1cc(Nc2nc(Nc3cccc(OCCN4CCCC4)c3)ncc2C#N)c(Cl)cc1Cl [Compound 2],"IC50 (Table 5, Initial Screening Hits for JAK2): 10500 nM; IC50 (Table 7, SAR for the P3 region): 10500 nM"
87.2 nM,"Cc1cnc(Nc2ccc(OCCN3CCCC3)cc2)nc1Nc1ccc2c(c1)OCO2 [N4-Benzo[1,3]dioxol-5-yl-5-methyl-N2-[4-(2-pyrrolidin-1-yl-ethoxy)-phenyl]-pyrimidine-2,4-diamine trifluoroacetate]",
126 nM,Cc1cnc(Nc2ccc(N3CCN(C)CC3)cc2)nc1Nc1cccc(NC(=O)Nc2cccc(C(F)(F)F)c2)c1 [1-(3-{5-Methyl-2-[4-(4-methyl-piperazin-1-yl)-phenylamino]-pyrimidin-4-ylamino}-phenyl)-3-(3-trifluoromethyl-phenyl)-urea],
2.73 nM,"Cc1cnc(Nc2ccc(OC3CCNCC3)cc2)nc1Nc1cccc(C(C)(C)C)c1 [N4-(3-tert-butylphenyl)-5-methyl-N2-(4-(piperidin-4-yloxy)phenyl)pyrimidine-2,4-diamine Hydrochloride]",
51.9 nM,Cc1cnc(Nc2ccc(OC3CCNCC3)cc2)nc1Nc1cccc(O)c1 [3-(2-(4-(piperidin-4-yloxy)phenylamino)-5-methylpyrimidin-4-ylamino)phenol],
16.6 nM,"Cc1ccc(Nc2nc(Nc3ccc(N4CCN(C)CC4)cc3)ncc2C)cc1C [drawing 459, 5-methyl-N4-(3,4-dimeihylphenyl)-N2-(4-(4-methylpiperazin-1-yl)phenyl)pyrimidine-2,4-diamine Hydrochloride]",
42.5 nM,"Cc1cnc(Nc2ccc(N3CCN(C)CC3)cc2)nc1Nc1cccc(C2CCNCC2)c1 [5-Methyl-N2-[4-(4-methyl-piperazin-1-yl)-phenyl]-N4-(3-piperidin-4-yl-phenyl)-pyrimidine-2,4-diamine]",
18.9 nM,"COc1cc(Nc2nc(Nc3ccc(Cn4cccn4)cc3)ncc2C)ccc1Cl [N4-(4-Chloro-3-methoxy-phenyl)-5-methyl-N2-(4-pyrazol-1-ylmethyl-phenyl)-pyrimidine-2,4-diamine]",
8.41 nM,"Cc1cc(Nc2nc(Nc3ccc(OC4CCNCC4)cc3)ncc2C)ccc1Cl [N4-(4-Chloro-3-methyl-phenyl)-5-methyl-N2-[4-(piperidin-4-yloxy)-phenyl]-pyrimidine-2,4-diamine]",
,Cc1cnc(Nc2ccc(N3CCN(C)CC3)cc2)nc1Nc1cc(C)c(Cl)c(C)c1 [Compound 38],"IC50 (Table 8, SAR of the P4 region): 12 nM"

IC50 (Table 1),Compound,other results
,COc1ccc(Nc2ncc(C)c(Nc3cccc4c3OCO4)n2)cc1 [Compound 7],"IC50 (Table 7, SAR for the P3 region): 46 nM"
35.3 nM,"COc1cc(Nc2nc(Nc3ccc(N4CCCCC4)cc3)ncc2C)ccc1Cl [N4-(4-Chloro-3-methoxy-phenyl)-5-methyl-N2-(4-piperidin-1-yl-phenyl)-pyrimidine-2,4-diamine]",
18.6 nM,CC(=O)N1CCN(c2ccc(Nc3ncc(C)c(Nc4cccc(S(=O)(=O)NC(C)(C)C)c4)n3)cc2)CC1 [3-{2-[4-(4-Acetyl-piperazin-1-yl)-phenylamino]-5-methyl-pyrimidin-4-ylamino}-N-tert-butyl-benzenesulfonamide],
29.8 nM,Cc1cnc(Nc2ccc(CN3CCN(C)CC3)cc2)nc1Nc1cccc(S(=O)(=O)NC(C)(C)C)c1,
,COc1cccc(Nc2ccnc(Nc3ccc(OCCN4CCCC4)cc3)n2)c1 [Compound 4],"IC50 (Table 6): 105 nM; IC50 (Table 7, SAR for the P3 region): 105 nM; IC50 (Table 8, SAR of the P4 region): 105 nM"
28.5 nM,"Cc1cnc(Nc2ccc(OCCN3CCCC3)cc2)nc1Nc1ccc2sccc2c1 [N4-Benzo[b]thiophen-5-yl-5-methyl-N2-[4-(2-pyrrolidin-1-yl-ethoxy)-phenyl]-pyrimidine-2,4-diamine]",
203 nM,Cc1cnc(Nc2ccc(OCCN3CCCC3)cc2)nc1Nc1cccc(O)c1 [3-(2-(4-(2-(pyrrolidin-1-yl)ethoxy)phenylamino)-5-methylpyrimidin-4-ylamino)phenol Hydrochloride],
,COc1cccc(Nc2nc(Nc3ccc(OCCN4CCCC4)cc3)ncc2C)c1 [Compound 5],"IC50 (Table 6): 53 nM; IC50 (Table 7, SAR for the P3 region): 53 nM"
46.3 nM,"Cc1cnc(Nc2ccc(N3CCN(C)CC3)cc2)nc1Nc1cccc(N2CCCCC2)c1 [5-methyl-N2-(4-(4-methylpiperazin-1-yl)phenyl)-N4-(3-(piperidin-1-yl)phenyl)pyrimidine-2,4-diamine]",
8 nM,"CCCS(=O)(=O)c1cccc(Nc2nc(Nc3ccc(N4CCN(C)CC4)cc3)ncc2C)c1 [5-methyl-N2-(4-(4-methylpiperazin-1-yl)phenyl)-N4-(3-(propylsulfonyl)phenyl) pyrimidine-2,4-diamine]",
153 nM,"Cc1cnc(Nc2nc(Nc3ccc(OCCN4CCCC4)cc3)ncc2C)nc1Nc1cccc(C(C)(C)C)c1 [N2-(4-(2-(pyrrolidin-1-yl)ethoxy)phenyl)-N4-(4-(3-tert-butylphenylamino)-5-methylpyrimidin-2-yl)-5-methylpyrimidine-2,4-diamine Hydrochloride]",
16.1 nM,CNS(=O)(=O)c1cccc(Nc2nc(Nc3ccc(N4CCN(C)CC4)cc3)ncc2C)c1 [N-Methyl-3-{5-methyl-2-[4-(4-methyl-piperazin-1-yl)-phenylamino]-pyrimidin-4-ylamino}-benzenesulfonamide],
10700 nM,COc1ccc(Nc2ccnc(Nc3ccc(S(=O)(=O)NCCN4CCCC4)cc3)n2)cc1 [4-[4-(4-Methoxy-phenylamino)-pyrimidin-2-ylamino]-N-(2-pyrrolidin-1-yl-ethyl)-benzenesulfonamide trifluoroacetate],
19.9 nM,"Cc1cnc(Nc2ccc(C(C)N3CCOCC3)cc2)nc1Nc1cccc(C(C)(C)C)c1 (stereo not drawn) [N4-(3-tert-butylphenyl)-5-methyl-N2-(4-(1-morpholinoethyl)-phenyl)pyrimidine-2,4-diamine Hydrochloride]",
3620 nM,O=S(=O)(NCCN1CCCC1)c1ccc(Nc2nccc(Nc3cccc(O)c3)n2)cc1 [4-[4-(3-Hydroxy-phenylamino)-pyrimidin-2-ylamino]-N-(2-pyrrolidin-1-yl-ethyl)-benzenesulfonamide trifluoroacetate],
40.1 nM,"Cc1cnc(Nc2ccc(OCCN3CCCC3)cc2)nc1Nc1ccc(Cl)c(F)c1 [N4-(4-Chloro-3-fluoro-phenyl)-5-methyl-N2-[4-(2-pyrrolidin-1-yl-ethoxy)-phenyl]-pyrimidine-2,4-diamine]",
38 nM,"Cc1cnc(Nc2ccc(N3CCN(C)CC3)cc2)nc1Nc1cc(C)c(Cl)c(C)c1 [drawing 361, N4-(4-chloro-3,5-dimethylphenyl)-5-methyl-N2-(4-(4-methylpiperazin-1-yl)phenyi)pyrimidine-2,4-diamine Hydrochloride]",
88.2 nM,Cc1ccc(Nc2nc(Nc3ccc(-n4ccnc4)cc3)ncc2C)cc1S(=O)(=O)NC(C)(C)C [N-tert-Butyl-5-[2-(4-imidazol-1-yl-phenylamino)-5-methyl-pyrimidin-4-ylamino]-2-methyl-benzenesulfonamide],
4.14 nM,"COc1cc(Nc2nc(Nc3ccc(OC4CCNCC4)cc3)ncc2C)ccc1Cl [drawing 349, N4-(4-Chloro-3-methoxy-phenyl)-5-methyl-N2-[4-(piperidin-4-yloxy)-phenyl]-pyrimidine-2,4-diamine]",
9.52 nM,"COc1cc(Nc2nc(Nc3cccc(N4CCNCC4)c3)ncc2C)ccc1Cl [N4-(4-Chloro-3-methoxy-phenyl)-5-methyl-N2-(3-piperazin-1-yl-phenyl)-pyrimidine-2,4-diamine]",
